This note sets out measurements from patent publication US20230263897A1, “CONJUGATE OF GALNAC AND SAPONIN, […] COMPOSITION COMPRISING SAID CONJUGATE AND A GALNAC-OLIGO[…]” (SAPREME TECHNOLOGIES B.V., priority 2020, published 2023).

The test system of data set [1] is ApoB RNA. Briefly: ApoB RNA expression analysis in liver tissue of C57BL/6J mice. Type of data set: in vivo. As for the experimental part:
(§1) • Dose administration and in-life phase. Per group, 8 C57BL/6J male mice for treatment groups and 14 in vehicle control group, approximately 6-7 weeks at arrival and 8-9 weeks at dosing, were dosed. The compounds, formulated in PBS or PBS alone (vehicle) according to Table A5, were dosed at 5 ml/kg in the tail vain (intravenously, iv), with dose volumes corresponding to the individual bodyweights. Where applicable, trivalent GalNAc-SO1861-EMCH was co-administered at 5 ml/kg in the tail vain (iv) right after the trivalent GalNAc-ApoB conjugate. Animals were weighed weekly and clinical observations were performed 2-3 times daily within the first 48 hrs, and at least once daily thereafter until study end. • Sampling of serum, liver, and kidney tissue. […] One half of the liver and one kidney was frozen and used for tissue RNA analysis.
The mRNA was isolated from frozen liver tissue using TRzol® Reagent (Thermo Scientific) according to the manufacturer's instruction. Conversion into cDNA was performed using Script™ cDNA Synthesis Kit (BioRad). ApoB expression levels and levels of specific liver housekeeping genes were determined using quantitative real-time PCR assays (qRT-PCR) using iTaq™ Universal SYBR® Green Supermix (BioRad) and the Light Cycler 480 (Roche Diagnostics, Rotkreuz, Switzerland) with specific DNA primers, listed in Table A5. Analysis was done by the ΔCt method to determine ApoB expression relative to 2 liver-specific housekeeping control mRNAs. Each analysis reaction was performed in triplicate.

A short description of data set [2]: In vivo tolerability (clinical observations, body weight) in C57BL/6J mice. To be noted: doses and dose regimen of Table A5, iv, up to 336 hrs. As for the experimental part: During the study period, ALT levels for vehicle mice ranged from an average 47 to 61 U/L per group (n=6 animals for vehicle).
as §1

In a further data set the test system is LDL-cholesterol. Briefly: Serum LDL-cholesterol analysis in C57BL/6J mice. In kind it is in vivo. The method, then:
as §1
LDL-cholesterol was measured in mouse serum, using an LDL-cholesterol specific two-step AU480 assay kit, respectively, from Beckman Coulter, with a photometric measurement according to the manufacturer's instructions.

The subject of data set [3] is ApoB RNA. As to the kind of experiment: ApoB RNA expression analysis in mouse primary hepatocytes. Type of data set: cell-based. The following applies: alone. The source says: Cryopreserved primary mouse hepatocytes ([…] Cell Culture Technology GmbH, Germany) were thawed in hepatocyte thawing media (HTM, […] Cell Culture Technology GmbH, Germany) and washed 1× with hepatocyte wash media (HWM, […] Cell Culture Technology GmbH, Germany). Cells were re-suspended in hepatocyte plating media (HPM Cryo, […] Cell Culture Technology GmbH, Germany) at a density of approx. 0.275×10^6 cells/ml.
RNA from cells was isolated using TRI Reagent® Solution (Thermo Scientific) according to the manufacturer's instruction. Conversion into cDNA was performed using iScript™ cDNA Synthesis Kit (BioRad) using standard protocols. ApoB expression levels and levels of specific hepatocyte housekeeping genes were determined using quantitative real-time PCR assays (qRT-PCR) using iTaq™ Universal SYBR® Green Supermix (BioRad) and the Light Cycler 480 (Roche Diagnostics, Rotkreuz, Switzerland) with specific DNA primers, listed in Table A4. Analysis was done by the ΔCt method to determine ApoB expression relative to 2 hepatocyte-specific housekeeping control mRNAs. Each analysis reaction was performed in triplicate.

[BNANC] = BNA^NC bridged nucleic acid sugar; {ThiolC6} = Thiol C6 linker; d = 2'-deoxy (DNA)

A word on the IC50: it is the concentration that inhibits the measured activity by half. Take “ApoB #02: murine and human sequence-compatible ApoB BNA(NC) antisense oligo 5′-GCattggtatTCA-3′ [SEQ ID NO: 12] (antisense GCATTGGTATTCA; sugars from the 5' end [BNANC]2 d8 [BNANC]3, all phosphorothioate, 5' {ThiolC6}, methylation of C not given here)”: the “reduction of liver ApoB RNA levels compared to vehicle” value with ApoB RNA [1] (0.1 mg/kg iv alone, 24 hrs) is “not noticeably reduced”; with ApoB RNA [1] (1 mg/kg iv alone, 24 hrs), approximately 15%; in the data set on ApoB RNA [1] (2 mg/kg iv alone, 24 hrs), approximately 21%; with ApoB RNA [1] (2 mg/kg iv alone, 72 hrs), 39%; in the data set on ApoB RNA [1] (2 mg/kg iv alone, 336 hrs), 30%. Besides, in data set [2], the “tolerability (clinical observations, adverse findings)” value was “well tolerated”. Also, the “reduction of serum LDL-C compared to vehicle” value in the data set on LDL-cholesterol (0.1 mg/kg iv alone, 24 hrs) is reported as “not noticeably reduced”; with LDL-cholesterol (1 mg/kg iv alone, 24 hrs), “not noticeably reduced”; in the data set with LDL-cholesterol (2 mg/kg iv alone, 24 hrs) it was “not noticeably reduced”; with LDL-cholesterol (2 mg/kg iv alone, 72 hrs), 50%. The “reduction of serum LDL-C” value in the data set with LDL-cholesterol (2 mg/kg iv alone, 336 hrs) is 40%. In addition, the IC50 in the data set with ApoB RNA [3] (72 hrs, read-out: IC50 ApoB RNA down-modulation) worked out at 20 nM. Further, the “fold less potent in ApoB RNA down-modulation than (GalNAc)3-ApoB #02 combined with SO1861-EMCH or (GalNAc)3-SO1861” value with ApoB RNA [3] is reported as 100-667 fold.
